Source: publication PMC12430443, “Discovery of Novel Benzamide-Based Sigma-1 Receptor Agonists with Enhanced Selectivity and Safety” (Molecules, 2025)
≈ marks a conversion by molar mass, not a printed value. Like-named read-outs stand apart in the source and are kept apart here.

Experiments:
S1R-BiP complex = molecular target: T1, S1R-BiP complex (Cricetulus griseus, UniProt A0A3L7I3A5); assay: S1R-BiP complex dissociation, co-immunoprecipitation and BiP ELISA in CHO cells; type: cell-based; conditions: for Dissociation of the S1R-BiP complex (in words): 1 and 10 µM, 30 min incubation, CHO cells, n = 6
T1 construct: host or cells: CHO cells
Experimental: The interaction between S1R and BiP provides a reliable assay to identify S1R ligands by monitoring the dynamics of the S1R-BiP complex. In this assay, the known S1R agonist PRE-084 and antagonist NE-100 were used as controls (Figure 3).
The ability of the compounds to promote dissociation of the S1R–BiP complex was assessed by Amylgen (Montferrier-sur-Lez, France) as described in [22, 23]. CHO cells were treated with the test compounds for 30 min at 37 °C, followed by crosslinking with dithiobis(succinimidyl propionate) (DSP; Thermo Scientific, Waltham, MA, USA). Cells were lysed after 15 min on ice, and the lysates were centrifuged. Supernatants were incubated overnight at 4 °C with an anti-S1R antibody (Abcam, Cambridge, UK), and then with Protein A-Sepharose (Invitrogen). After the first centrifugation, pellets were resuspended in radioimmunoprecipitation assay (RIPA) buffer, centrifuged again, and resuspended in 2× sample buffer/bMCE buffer. Following a third centrifugation, the supernatants were analyzed for BiP immunoreactivity using an ELISA kit (SEC343Mu, USCNK Life Sciences, Wuhan, China).
Figure 3 In vitro evaluation of agonist activity of compounds 2, 3, and 6: The effects of compounds 2, 3, and 6 at 1 and 10 µM on the S1R-BiP association after 30 min of incubation were analyzed by co-immunoprecipitation using an anti-S1R antibody (red). BiP levels were quantified by ELISA. PRE-084 (white) and NE-100 (black) served as the reference agonist and antagonist, respectively (10 µM). Agonist activity was confirmed by its blockade with NE-100 (black hatching). […] Data represent the mean ± SEM from n = 6 per condition. Statistical significance was assessed using Dunnett’s test: *** p < 0.0001, * p < 0.05 vs. untreated control; ### p < 0.0001, # p < 0.05 for NE-100 blockade.

hERG channel = molecular target: T2, hERG channel (Homo sapiens, UniProt Q12809); assay: hERG automated whole-cell patch-clamp in hERG CHO-K1 cells; type: cell-based; conditions: for hERG inhibition IC50 / IC50: tail current, hERG CHO-K1 cells, 0.1 to 10 µM, n = 2; for IC50: read-out: hERG inhibition IC50
T2 construct: host or cells: CHO-K1
Experimental: Cardiac toxicity is a leading cause of drug development failure. Early safety profiling includes evaluation of the potassium voltage-gated channel subfamily H member 2 (KCNH2 or hERG) channel, the only in vitro assay mandated by regulatory agencies to predict proarrhythmic risk. […] Importantly, an IC50 (hERG)/Ki (σ1) ratio exceeding 100 is advised for cardiac safety; all compounds met this criterion.
Cardiotoxicity analysis was performed by Eurofins Cerep (Poitiers, France) as described in [41]. Rapidly, hERG CHO-K1 cells were used to perform automated whole-cell patch-clamp. Compounds were evaluated in duplicate from 0.1 to 10 µM. The degree of inhibition (%) was determined by measuring the tail current amplitude, which was induced by a one-second test pulse to −40 mV after a two-second pulse to +20 mV, before and after drug incubation for 5 min at room temperature. After normalization, activities were expressed as the % inhibition of tail current. […] The concentration–response relationship of each compound was constructed from the percentage reductions in current amplitude by sequential concentrations.

OAT3 = OAT3 (Homo sapiens, UniProt Q8TCC7); assay: Transporter inhibition in overexpressing cell lines; type: in vitro ADME; conditions: SLC family, n = 2, read-out: Drug transport inhibition OAT3
Experimental: Microsomal stability was evaluated using human liver microsomes at 10 µM (Table 3). […] Since cytochrome P450 (CYP) enzymes—especially families 1 to 3—play major roles in drug metabolism, CYP inhibition was tested against the human isoforms CYP1A, 2B6, 2C8, 2C9, 2C19, 2D6, and 3A, as recommended by FDA and EMA guidelines. […] Membrane transport proteins, including the ATP-binding cassette (ABC) and solute carrier (SLC) families, affect drug pharmacokinetics and potential drug–drug interactions. The inhibitory effects of compounds 2 and 6 were assessed against five ABC transporters (P-gp, BCRP, MRP1, MRP2, and MRP3) and seven SLC transporters (OAT1, OAT3, OATP1B1, OCT1, OCT2, ASBT, and NTCP).
(§1) Standardized in vitro ADME experiments were performed by Eurofins Cerep (Poitiers, France). Solubility assays were performed in PBS at pH 7.4, but also in simulated gastric fluid (SGF) and intestinal fluid (SIF), through the classical shake-flask method described by Lipinski et al., using HPLC-UV/VIS technology. The results were expressed in µM. The compound was classically evaluated at 10 µM for all of the ADME analyses. Bidirectional permeability (apical A to basolateral B pH 6.5/7.4, and basolateral B to apical A pH 7.4/6.5) was assessed in the epithelial colorectal adenocarcinoma cell line (Caco-2 cell line). The results were expressed as ×10^−6 cm/s (Papp) and as % recovery. The efflux ratio, i.e., Papp (B→A)/Papp(A→B), was calculated. Plasma protein binding was analyzed by HPLC-MS/MS after 4 h of incubation at 37 °C, as described by Banker et al.. Concentration was evaluated by LC/MS-MS. CYP inhibition was performed in human liver microsomes as described in [28]. Analysis of the respective metabolites was performed by HPLC-MS/MS. Transporter inhibition analysis was also performed in overexpressing cell lines. Respective metabolites for each specific transporter substrate were analyzed by fluorometry or scintillation counting, and % inhibition of control values were calculated. P-glycoprotein transporter substrate assessment was performed by bidirectional permeability analysis (apical A to basolateral B pH 7.4/7.4, and basolateral B to apical A pH 7.4/7.4) in the Caco-2 cell line with and without verapamil, as described in [26]. The results were expressed as ×10^−6 cm/s (Papp) and as % recovery. The efflux ratio was calculated as Papp(B→A)/Papp(A→B). CYP450 induction was assessed in human hepatocytes by measuring the mRNA levels of seven CYP isoforms via qPCR, as described in [40]. The compound was tested at 1, 10, and 100 μM, and fold-induction values were compared with predefined cut-off thresholds for each isoform and hepatocyte lot.

[1] = Bidirectional permeability in Caco-2 cells; type: in vitro ADME; conditions: human; for Papp A→B at 10 µM / Papp B→A at 10 µM: pH 7.4, 10 µM; for Papp A→B at 10 µM: n = 2, read-out: Permeability A/B pH7.4/7.4; for Papp B→A at 10 µM: n = 2, read-out: Permeability B/A pH7.4/7.4; for efflux ratio at 10 µM: read-out: e-ratio
Experimental: (§2) Solubility and stability remained unchanged in simulated gastric fluid (SGF) and simulated intestinal fluid (SIF), which mimic gastrointestinal digestion. Intestinal permeability was assessed using a two-chamber system with apical (A, pH 6.5) and basolateral (B, pH 7.4) compartments, representing the luminal and blood/mesenteric lymph sides of the gastrointestinal tract, respectively. […] The efflux ratios for both compounds ranged between 1 and 2, indicating improved permeability relative to the reference compound 1.
as §1

[2] = Solubility, shake-flask method, HPLC-UV/VIS; type: physicochemical; conditions: thermodynamic from solid, n = 2
Experimental: as §2, §1

[3] = aqueous buffer, PBS pH 7.4, read-out: Solubility PBSpH7.4
[4] = simulated gastric fluid (SGF), simulated gastric fluid, read-out: Solubility SGF
[5] = simulated intestinal fluid (SIF), fassgf or other biorelevant, simulated intestinal fluid, read-out: Solubility SIF

T2 sequence (Q12809 whole entry): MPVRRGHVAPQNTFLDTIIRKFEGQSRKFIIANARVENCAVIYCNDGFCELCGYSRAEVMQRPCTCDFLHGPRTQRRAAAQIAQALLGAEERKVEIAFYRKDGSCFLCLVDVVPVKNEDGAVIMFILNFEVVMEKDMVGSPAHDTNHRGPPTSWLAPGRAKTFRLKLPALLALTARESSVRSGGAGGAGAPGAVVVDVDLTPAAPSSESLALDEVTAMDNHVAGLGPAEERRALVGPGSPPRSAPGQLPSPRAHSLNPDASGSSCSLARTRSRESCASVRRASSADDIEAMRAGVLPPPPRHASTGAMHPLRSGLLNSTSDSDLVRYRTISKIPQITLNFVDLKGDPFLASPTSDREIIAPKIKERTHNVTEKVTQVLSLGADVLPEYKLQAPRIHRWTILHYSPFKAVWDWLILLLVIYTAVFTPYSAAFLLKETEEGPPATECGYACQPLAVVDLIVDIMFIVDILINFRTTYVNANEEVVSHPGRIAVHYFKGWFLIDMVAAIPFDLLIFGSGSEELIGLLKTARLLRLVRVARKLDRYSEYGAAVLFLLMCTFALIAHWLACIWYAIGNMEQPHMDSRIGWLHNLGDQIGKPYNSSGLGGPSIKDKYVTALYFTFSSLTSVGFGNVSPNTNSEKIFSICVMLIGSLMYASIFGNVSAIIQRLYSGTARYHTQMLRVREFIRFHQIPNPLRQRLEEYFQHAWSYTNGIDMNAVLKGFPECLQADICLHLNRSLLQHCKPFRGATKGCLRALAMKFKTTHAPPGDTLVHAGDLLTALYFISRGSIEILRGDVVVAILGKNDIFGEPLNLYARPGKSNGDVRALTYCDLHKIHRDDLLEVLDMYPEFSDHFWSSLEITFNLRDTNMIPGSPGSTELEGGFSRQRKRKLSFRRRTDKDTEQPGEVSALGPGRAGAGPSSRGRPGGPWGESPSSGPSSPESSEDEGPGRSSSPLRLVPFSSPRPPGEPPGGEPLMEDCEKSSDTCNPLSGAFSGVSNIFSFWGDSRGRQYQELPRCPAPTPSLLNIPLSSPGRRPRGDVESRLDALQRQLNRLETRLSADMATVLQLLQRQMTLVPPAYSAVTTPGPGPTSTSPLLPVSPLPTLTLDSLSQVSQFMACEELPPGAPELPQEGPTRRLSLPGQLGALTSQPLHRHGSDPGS
T1 sequence (A0A3L7I3A5 1-223, one chain of several): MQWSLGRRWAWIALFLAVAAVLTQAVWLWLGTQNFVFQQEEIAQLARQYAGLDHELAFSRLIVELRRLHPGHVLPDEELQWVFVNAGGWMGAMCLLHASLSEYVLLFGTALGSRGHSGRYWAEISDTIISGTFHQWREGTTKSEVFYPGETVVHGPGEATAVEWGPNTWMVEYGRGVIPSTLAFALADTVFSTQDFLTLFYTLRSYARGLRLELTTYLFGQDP
Sequence of OAT3 (Q8TCC7 whole entry, canonical isoform): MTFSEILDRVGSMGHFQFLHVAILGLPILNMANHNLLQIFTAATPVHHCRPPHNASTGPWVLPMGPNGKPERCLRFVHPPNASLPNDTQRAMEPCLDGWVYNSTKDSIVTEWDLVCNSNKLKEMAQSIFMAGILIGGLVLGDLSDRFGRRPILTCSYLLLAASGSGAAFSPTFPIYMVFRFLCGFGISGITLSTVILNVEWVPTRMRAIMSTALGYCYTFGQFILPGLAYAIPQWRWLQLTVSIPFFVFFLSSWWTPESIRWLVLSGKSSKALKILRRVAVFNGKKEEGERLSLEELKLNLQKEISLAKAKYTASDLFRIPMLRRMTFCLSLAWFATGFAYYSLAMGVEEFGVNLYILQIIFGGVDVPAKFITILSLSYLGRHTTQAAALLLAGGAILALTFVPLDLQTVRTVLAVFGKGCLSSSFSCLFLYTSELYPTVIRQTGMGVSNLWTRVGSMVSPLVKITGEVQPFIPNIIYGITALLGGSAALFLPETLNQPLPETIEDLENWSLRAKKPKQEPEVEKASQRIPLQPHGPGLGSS

CN(CCC(=O)NCc1cccc(Cl)c1)Cc1ccccc1 [Compound 2, 3-(Benzylmethylamino)-N-(3-chlorobenzyl)propanamide]
Dissociation of the S1R-BiP complex (in words) (S1R-BiP complex): significant, dose-dependent dissociation | Dissociation of S1R-BiP complex in the presence of NE-100 (in words) (S1R-BiP complex; co-treatment with NE-100 (10 µM)): completely inhibited | hERG inhibition IC50 (hERG channel): micromolar range | IC50 (hERG channel): 6.8 µM | inhibition at 10 µM (OAT3): 33.3% | Papp A→B at 10 µM [1]: 39 ×10⁻⁶ cm/s | Papp B→A at 10 µM [1]: 67.4 ×10⁻⁶ cm/s | efflux ratio at 10 µM [1]: 1.7 | solubility [2, 3]: 167 µM (≈ 52.9 µg/mL) | solubility [2, 4]: 186 µM (≈ 58.9 µg/mL) | solubility [2, 5]: 181 µM (≈ 57.3 µg/mL)

CN(CCC(=O)NCc1ccc(C#N)cc1)Cc1ccccc1 [Compound 6, 3-(Benzylmethylamino)-N-(4-cyanobenzyl)propanamide]
Dissociation of the S1R-BiP complex (in words) (S1R-BiP complex): slight and less significant reduction | IC50 (hERG)/Ki (σ1) (hERG channel; ratio): 143 | hERG inhibition IC50 (hERG channel): micromolar range | IC50 (hERG channel): 0.8 µM | inhibition at 10 µM (OAT3): 27.8% | Papp A→B at 10 µM [1]: 49.8 ×10⁻⁶ cm/s | Papp B→A at 10 µM [1]: 60.9 ×10⁻⁶ cm/s | efflux ratio at 10 µM [1]: 1.2 | solubility [2, 3]: 190 µM (≈ 58.4 µg/mL) | solubility [2, 4]: 178 µM (≈ 54.7 µg/mL) | solubility [2, 5]: 190 µM (≈ 58.4 µg/mL)
